Results: patent publication US20080009546A1 (Chevron U.S.A. Inc., priority 2005, published 2008)

Tested on: primary neurons from rat cerebral cortex
Test: NMDA-induced LDH release assay in primary cortical neurons (neuroprotection)
Format: cell-based
Design: Total LDH (Avg): unit not given here
How it was run: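 Fetal rat (E16–E18) cortical neurons on mouse astroglial feeder layers, fed growth medium/neurobasal+B27 (1:1), used after 11–14 days. Treatments given in Locke's buffer pH 7.4 for 15 min, then cells washed; 24 h later percent LDH released = 100×secreted/(total+secreted), tetrazolium readout.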

[1] = NMDA 300 uM + Memantine 50 uM, Plate #4, poly-lysine-coated rat neurons, GM/NB + B-27 fed, 24 hour incubation
[2] = NMDA 300 uM + Memantine 50 uM, Plate #5, astrocyte-coated rat neurons, GM fed, 24 hour incubation
[3] = NMDA 300 uM + Memantine 50 uM, astrocyte-coated rat neurons, GM/NB + B-27 fed, 24 hour incubation
[4] = NMDA 500 μM + Memantine 10 μM, astrocyte-coated rat neurons, GM/NB + B-27 fed, 21 hour incubation
[5] = NMDA 500 uM + Memantine 10 uM, poly-lysine-coated rat neurons, GM/NB + B-27 fed, 40 hour incubation
[6] = NMDA 500 μM + Memantine 100 μM, astrocyte-coated rat neurons, GM/NB + B-27 fed, 21 hour incubation
[7] = NMDA 500 uM + Memantine 100 uM, poly-lysine-coated rat neurons, GM/NB + B-27 fed, 40 hour incubation

## CC12CC3CC(C)(C1)CC(N)(C3)C2 [memantine, 1-amino-3,5-dimethyladamantane, reference compound]
[1]
  % (Control Wash = 100): 166%
  Secreted LDH (Avg): 0.75
  Secreted/(total + secreted) (Avg): 18.20
  Total LDH (Avg): 3.36
[2]
  % (Control Wash = 100): 106%
  Secreted LDH (Avg): 0.20
  Secreted/(total + secreted) (Avg): 6.20
  Total LDH (Avg): 3.06
[3]
  % (Control Wash = 100): 272%
  Secreted LDH (Avg): 0.83
  Secreted/(total + secreted) (Avg): 19.63
  Total LDH (Avg): 3.41
[4]
  % (Control Wash = 100): 129%
  Secreted LDH (Avg): 0.47
  Secreted/(total + secreted) (Avg): 10.73
  Total LDH (Avg): 3.89
[5]
  % (Control Wash = 100): 111%
  Secreted LDH (Avg): 0.41
  Secreted/(total + secreted) (Avg): 12.77
  Total LDH (Avg): 2.80
[6]
  % (Control Wash = 100): 114%
  Secreted LDH (Avg): 0.42
  Secreted/(total + secreted) (Avg): 9.47
  Total LDH (Avg): 4.02
[7]
  % (Control Wash = 100): 156%
  Secreted LDH (Avg): 0.52
  Secreted/(total + secreted) (Avg): 17.86
  Total LDH (Avg): 2.39
